One data set addresses T1, hCA I (Homo sapiens, UniProt P00915).
T1 construct: made in house
In words: CA inhibition, stopped-flow CO2 hydrase assay. In kind it is biochemical. Particulars: stopped-flow technique; incubation time 6 h; mean of 3 assays. Summed up: (§1)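 Stopped-flow CO2 hydration used saturated CO2 solutions at 25 °C as substrate. Enzyme and inhibitor (10 μM stocks in DMSO-water, diluted down to 0.01 nM) were preincubated for 6 h at room temperature.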

The next data set concerns the target T2, hCA II (Homo sapiens, UniProt P00918).
T2 construct: made in house
In words: CA inhibition, stopped-flow CO2 hydrase assay. The class given is biochemical. To be noted: stopped-flow technique; incubation time 6 h; mean of 3 assays. The procedure, abridged: as §1

The next data set has as its target T3, hCA IX (Homo sapiens, UniProt Q16790).
T3 construct: made in house
The data set is described as follows: CA inhibition, stopped-flow CO2 hydrase assay. The class given is biochemical. Particulars: stopped-flow technique; incubation time 6 h; mean of 3 assays. Summed up:
as §1

In a further data set the target is T4, hCA XII (Homo sapiens, UniProt O43570).
T4 construct: made in house
T4 sequence (O43570 25-354): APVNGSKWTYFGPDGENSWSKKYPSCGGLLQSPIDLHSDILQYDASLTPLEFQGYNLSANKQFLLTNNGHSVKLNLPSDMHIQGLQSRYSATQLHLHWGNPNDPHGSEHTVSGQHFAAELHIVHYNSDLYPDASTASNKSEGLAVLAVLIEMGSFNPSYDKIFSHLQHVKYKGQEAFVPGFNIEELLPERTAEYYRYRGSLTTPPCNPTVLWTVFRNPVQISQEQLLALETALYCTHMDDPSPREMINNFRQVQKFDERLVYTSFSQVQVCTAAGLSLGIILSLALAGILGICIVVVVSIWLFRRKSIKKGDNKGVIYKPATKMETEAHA
In words: CA inhibition, stopped-flow CO2 hydrase assay. The class given is biochemical. To be noted: stopped-flow technique; incubation time 6 h; mean of 3 assays. Summed up: as §1

The test system of another data set is K562/DOX cells. The data set is described as follows: Intrinsic cytotoxicity (MTT). The class given is cell-based, human. To be noted: compound alone at 3 µM, 72 h. Here is the method:
Compounds were first studied at 1 and 3 µM concentrations to evaluate their intrinsic cytotoxicity in both the parental K562 and the resistant K562/DOX cell lines, using the MTT assay. All compounds had no intrinsic cytotoxicity in the parental line.
The intrinsic toxicity of the studied compounds was determined by an MTT assay. K562 and K562/DOX were exposed for 72 h with compounds at 1 and 3 µM concentrations while HT29, A549, HT29/DOX and A549/DOX cells were incubated for 48 h with compounds used at different concentrations (from 10 nM to 50 µM). The percentage of growth compared to the untreated control was transformed into histograms with the GraphPad Prism 5 program.

The next data set has as its target P-gp (Homo sapiens, UniProt P08183). In words: P-gp ATPase activity (HT29/DOX cells). In kind it is biochemical. Details: endogenous in cells; host or cells: HT29/DOX (A27) and A549/DOX (A28). To be noted: 1 µM, compared with HT29. Here is the method:
Plasma-membrane vesicles enriched with P-gp were prepared by sequential centrifugation as detailed previously. The ATPase activity of immunopurified P-gp was evaluated spectrophotometrically by measuring the absorbance of the phosphate hydrolyzed from ATP at 620 nm, using a Synergy HT Multi-Detection Microplate Reader (Bio-Tek Instruments). The absorbance was converted into μmol hydrolyzed phosphate/min/mg proteins, according to the titration curve previously prepared.

The values that follow come from paper PMC11279465, “Dual Inhibitors of P-gp and Carbonic Anhydrase XII (hCA XII) against Tumor Multidrug Resistance with Piperazine Scaffold” (Molecules, 2024).

The structures appear in SMILES notation. pKi: −log10 of the molar value.

T1 sequence (P00915 whole entry): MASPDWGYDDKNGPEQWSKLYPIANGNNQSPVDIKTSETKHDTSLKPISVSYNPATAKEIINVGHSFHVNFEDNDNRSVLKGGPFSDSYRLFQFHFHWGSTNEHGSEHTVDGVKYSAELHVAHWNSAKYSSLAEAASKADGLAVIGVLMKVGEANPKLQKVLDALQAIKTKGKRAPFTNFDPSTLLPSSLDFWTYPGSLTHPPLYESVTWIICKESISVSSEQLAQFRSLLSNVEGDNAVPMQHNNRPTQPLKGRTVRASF
Sequence of P-gp (P08183 whole entry): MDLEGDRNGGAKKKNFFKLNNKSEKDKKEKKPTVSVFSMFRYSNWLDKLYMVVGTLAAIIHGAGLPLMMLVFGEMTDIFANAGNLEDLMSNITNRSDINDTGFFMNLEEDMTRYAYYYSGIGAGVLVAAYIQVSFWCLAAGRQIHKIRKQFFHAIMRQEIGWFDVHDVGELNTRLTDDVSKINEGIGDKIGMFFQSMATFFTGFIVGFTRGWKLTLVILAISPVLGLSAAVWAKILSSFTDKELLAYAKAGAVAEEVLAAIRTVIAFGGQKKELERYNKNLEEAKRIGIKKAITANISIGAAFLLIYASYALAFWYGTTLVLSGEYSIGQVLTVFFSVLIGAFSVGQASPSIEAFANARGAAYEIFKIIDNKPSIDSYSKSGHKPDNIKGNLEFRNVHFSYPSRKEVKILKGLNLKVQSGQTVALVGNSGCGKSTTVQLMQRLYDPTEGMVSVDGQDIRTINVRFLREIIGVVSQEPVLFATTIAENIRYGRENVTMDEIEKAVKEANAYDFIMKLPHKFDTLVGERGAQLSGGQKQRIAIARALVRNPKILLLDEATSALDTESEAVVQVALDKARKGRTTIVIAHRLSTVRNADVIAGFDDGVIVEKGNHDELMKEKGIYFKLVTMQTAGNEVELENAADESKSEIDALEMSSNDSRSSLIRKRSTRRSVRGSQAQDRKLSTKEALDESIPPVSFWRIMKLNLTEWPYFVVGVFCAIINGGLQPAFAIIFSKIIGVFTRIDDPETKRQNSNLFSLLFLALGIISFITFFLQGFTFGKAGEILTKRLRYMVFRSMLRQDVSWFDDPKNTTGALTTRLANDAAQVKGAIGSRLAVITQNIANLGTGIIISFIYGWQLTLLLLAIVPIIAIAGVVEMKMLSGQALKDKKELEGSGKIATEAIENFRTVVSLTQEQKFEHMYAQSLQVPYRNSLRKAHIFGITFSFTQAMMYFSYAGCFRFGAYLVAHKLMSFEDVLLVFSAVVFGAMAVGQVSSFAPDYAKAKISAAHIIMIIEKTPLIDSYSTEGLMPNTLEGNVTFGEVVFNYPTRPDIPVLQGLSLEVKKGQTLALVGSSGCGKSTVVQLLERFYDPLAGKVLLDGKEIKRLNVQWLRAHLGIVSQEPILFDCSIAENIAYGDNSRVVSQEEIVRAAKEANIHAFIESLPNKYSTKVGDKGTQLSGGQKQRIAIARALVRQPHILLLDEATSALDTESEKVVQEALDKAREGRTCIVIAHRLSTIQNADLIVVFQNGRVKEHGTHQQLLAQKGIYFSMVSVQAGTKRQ

Turning to `COc1ccc(C(CCCN2CCN(CCCCOc3ccc4ccc(=O)oc4c3)CC2)c2ccc(OC)cc2)cc1` [Compound 27, 7-(4-(4-(4,4-Bis(4-methoxyphenyl)butyl)piperazin-1-yl)butoxy)-2H-chromen-2-one], the pKi at hCA I is under 5.00; at hCA II, under 5.00; on hCA IX, 6.84; at hCA XII it was 7.04. In addition, in the data set with K562/DOX cells, the “reduction of cellular viability” value was 30–50%. Besides, the P-gp catalytic activity result on P-gp is “lowered the catalytic efficacy of P-gp in resistant cells to levels comparable to drug-sensitive HT29 and A549 cells”.

On to `COc1ccc(C(CCCN2CCN(CCCOc3ccc4oc(=O)ccc4c3)CC2)c2ccc(OC)cc2)cc1` [Compound 32, 6-(3-(4-(4,4-Bis(4-methoxyphenyl)butyl)piperazin-1-yl)propoxy)-2H-chromen-2-one], for which the pKi on hCA I was under 5.00; on hCA II, under 5.00; on hCA IX it was 7.05; on hCA XII it was 7.15. The P-gp catalytic activity entry at P-gp was “lowered the catalytic efficacy of P-gp in resistant cells to levels comparable to drug-sensitive HT29 and A549 cells”.

As usually defined, the pKi is the negative decadic logarithm of the Ki, by convention in mol/L.
